In patent publication US7759373B2, “Large conductance calcium-activated K channel opener” (Mitsubishi Tanabe Pharma Corporation, priority 2001, dated 2010):

Test system: rhythmic bladder contractions induced by substance P
Assay: Inhibitory effect on the rhythmic bladder contractions induced by substance P in anesthetized rats
Type: in vivo, rat
Conditions: time during which frequency of rhythmic contraction was completely inhibited, 0.25 mg/kg of the compound, substance P infusion
Description: Inhibitory effect on the rhythmic bladder contractions induced by substance P in anesthetized rats
For the experiments, Sprague-Dawley female rats (9 to 12 weeks old) weighing between 200 to 300 g were used. After urethane anesthetization (subcutaneously administered with a dose of 1.2 g/kg), cannulae were placed in both right and left femoral veins. One intravenous catheter was used for administration of compounds, and the other was for the substance P (0.33 μg/kg/min) infusion. We also cannulated into ureter to pass urine. Polyethylene catheters were inserted into carotid artery for continuous monitoring of arterial blood pressure and heart rate. For continuous infusion, transurethral bladder catheter was inserted into the bladder through the urethra and tied in place by a ligature around the urethral orifice. One end of the catheter was attached to a pressure transducer in order to measure intravesical pressure. The other end of the catheter was used for infusion of saline into the bladder. After stabilization of blood pressure and heart rate and after the bladder was emptied, cystometry was performed by filling the bladder slowly with about 0.6 ml of saline. After about 10 minutes, intravenous infusion of substance P (0.33 μg/kg/min) was started for stabilization of the micturition reflex. Compounds were administered after stable rhythmic bladder contraction was obtained over 15 minutes. All compounds were dissolved or suspended in saline containing 0.5% Tween 80 for intravenous administration (0.1 ml/kg).
A 100% inhibition time (minute) of the selected compounds of the present invention is shown in the following Table 65 with a rank of A, B or C. These ranges are as mentioned below. A≧20>B≧10>C (minute)

Row | Structure (SMILES) | 100% inhibition time range
1 | CS(=O)(=O)Nc1nc(-c2ccc(F)cc2)oc1-c1ccc(Cl)c(F)c1.[Na] [Preparation Example 348, 5-(4-chloro-3-fluorophenyl)-2-(4-fluorophenyl)oxazol-4-yl methanesulfonamide sodium salt] | C (A≧20>B≧10>C (minute))
2 | CN(C)c1ccc(-c2nc(CC(=O)O)c(-c3cccs3)o2)cn1 [Preparation Example 259] | B (A≧20>B≧10>C (minute))
3 | COc1cccc(-c2nc(CC(=O)O)c(-c3cccs3)o2)c1 [Preparation Example 263] | C (A≧20>B≧10>C (minute))
4 | N#CCCc1nc(-c2ccc(F)cc2)[nH]c1-c1ccsc1 [Preparation example 46] | B (A≧20>B≧10>C (minute))
5 | O=C(O)Cc1sc(-c2cc3ccccc3s2)nc1-c1ccc(Cl)s1 [Preparation Example 569] | A (A≧20>B≧10>C (minute))
6 | O=C(O)Cc1nc(-c2ccc(F)cc2)oc1-c1cccc(Cl)c1 [Preparation Example 241] | C (A≧20>B≧10>C (minute))
7 | CCCc1nc(-c2ccc(C#N)cc2)[nH]c1-c1ccccc1 [Preparation example 31] | A (A≧20>B≧10>C (minute))
8 | CCc1c(-c2cccnc2)nc(-c2ccc(F)cc2)n1C.Cl.Cl [Preparation example 102, 5-ethyl-2-(4-fluoro-phenyl)-1-methyl-4-(3-pyridyl)imidazole dihydrochloride] | C (A≧20>B≧10>C (minute))
9 | O=C(O)Cc1nc(-c2ccc3c(c2)CCCS3)oc1-c1ccc(Cl)s1 [Preparation Example 456] | C (A≧20>B≧10>C (minute))
10 | CCc1nc(-c2ccc(C)nc2)[nH]c1-c1cncs1 [Preparation example 83] | B (A≧20>B≧10>C (minute))
11 | COc1cc(-c2oc(-c3ccc(F)cc3)nc2CC(=O)O)ccc1O [Preparation Example 293] | C (A≧20>B≧10>C (minute))
12 | CS(=O)(=O)NC(=O)Cc1nc(-c2ccc(F)cc2)oc1-c1ccsc1.[Na] [Preparation Example 370, N-[2-(4-fluorophenyl)-5-(3-thienyl)oxazol-4-ylacetyl]methanesulfonamide sodium salt] | C (A≧20>B≧10>C (minute))
13 | CCc1[nH]c(-c2sccc2CO)nc1-c1cccnc1.Cl.Cl [Preparation example 67, 5-ethyl-2-(3-hydroxymethylthiphen-2-yl)-4-(3-pyridyl)imidazole dihydrochloride] | B (A≧20>B≧10>C (minute))
14 | O=C(O)Cc1nc(-c2ccc(F)cc2)oc1-c1ccccc1F [Preparation Example 162] | C (A≧20>B≧10>C (minute))
15 | O=C(O)Cc1nc(-c2ccc(N3CCSC3)nc2)oc1-c1ccsc1 [Preparation Example 529] | B (A≧20>B≧10>C (minute))
16 | CCc1nc(-c2ccc(C#N)cc2)[nH]c1-c1ccccc1 [Preparation example 27] | B (A≧20>B≧10>C (minute))
17 | O=C(O)Cc1nc(-c2ccc(CO)cc2)oc1-c1ccc(Cl)s1 [Preparation Example 436] | C (A≧20>B≧10>C (minute))
18 | CN(C)c1ncc(-c2nc(-c3cccs3)c(CC(=O)O)s2)cn1 [Preparation Example 580] | C (A≧20>B≧10>C (minute))
19 | CCc1[nH]c(-c2ccc(F)cc2)nc1-c1cccnc1.Cl.Cl [Preparation example 80, 5-ethyl-2-(4-fluorophenyl)-4-(3-pyridyl)imidazole dihydrochloride] | B (A≧20>B≧10>C (minute))
20 | COc1ccc(-c2nc(-c3ccc(Cl)s3)c(CC(=O)O)o2)cc1 [Preparation Example 516] | B (A≧20>B≧10>C (minute))
21 | O=C(O)Cc1nc(-c2ccc(F)cc2)oc1-c1cccc(F)c1 [Preparation Example 236] | C (A≧20>B≧10>C (minute))
22 | CCN(CC)c1ccc(-c2nc(CC(=O)O)c(-c3ccsc3)o2)cn1 [Preparation Example 530] | C (A≧20>B≧10>C (minute))
23 | O=C(O)Cc1nc(-c2ccc(Cl)cc2)oc1-c1ccco1 [Preparation Example 201] | C (A≧20>B≧10>C (minute))
24 | Cc1csc(-c2oc(-c3ccc(F)cc3)nc2CC(=O)O)c1 [Preparation Example 164] | B (A≧20>B≧10>C (minute))
25 | COc1ccc(-c2nc(CC(=O)O)c(-c3ccc(Cl)s3)o2)cc1O [Preparation Example 290] | B (A≧20>B≧10>C (minute))

Row | Structure (SMILES) | 100% inhibition time range
26 | CN(C)c1ccc(-c2nc(CC(=O)O)c(-c3ccc(Cl)s3)s2)cn1 [Preparation Example 608] | B (A≧20>B≧10>C (minute))
27 | C[S+]([O-])Cc1nc(-c2ccc(C#N)cc2)[nH]c1-c1ccccc1 (centres unmarked) [Preparation example 137] | C (A≧20>B≧10>C (minute))
28 | O=C(O)Cc1nc(-c2ccc(F)cc2)oc1-c1ccc(F)c(F)c1 [Preparation Example 166] | B (A≧20>B≧10>C (minute))
29 | COc1ccc(-c2nc(CC(=O)O)c(-c3ccsc3)o2)cn1 [Preparation Example 369] | B (A≧20>B≧10>C (minute))
30 | CN(C)c1ccc(-c2nc(CC(=O)O)c(-c3ccc(Cl)s3)o2)cn1 [Preparation Example 260] | A (A≧20>B≧10>C (minute))
31 | O=C(O)Cc1sc(-c2ccc(F)cc2)nc1-c1ccc(Cl)cc1 [Preparation Example 573] | B (A≧20>B≧10>C (minute))
32 | COc1ccc(-c2nc(-c3ccc(Cl)s3)c(CC(=O)O)s2)cc1 [Preparation Example 570] | A (A≧20>B≧10>C (minute))
33 | CCc1[nH]c(-c2cc(Cl)sc2S(=O)(=O)O)nc1-c1cccnc1.Cl.Cl [Preparation example 143, 2-(5-Chloro-2-sulfothiophen-3-yl)-5-ethyl-4-(3-pyridyl)-imidazole dihydrochloride] | C (A≧20>B≧10>C (minute))
34 | CSc1ccc(-c2nc(CC(=O)O)c(-c3ccsc3)o2)cc1 [Preparation Example 440] | C (A≧20>B≧10>C (minute))
35 | O=C(O)Cc1nc(-c2ccc3ccccc3n2)oc1-c1ccsc1 [Preparation Example 439] | C (A≧20>B≧10>C (minute))
36 | CN(C)c1ccc(-c2nc(-c3ccc(Cl)s3)c(CC(=O)O)s2)cn1 [Preparation Example 571] | A (A≧20>B≧10>C (minute))
37 | COc1ccc(-c2nc(CC(=O)O)c(-c3ccc(Cl)c(F)c3)o2)cc1 [Preparation Example 525] | A (A≧20>B≧10>C (minute))
38 | Cc1cc(-c2nc(CC(=O)O)c(-c3ccc(Cl)cc3)o2)sc1C [Preparation Example 474] | C (A≧20>B≧10>C (minute))
39 | Cc1ccccc1-c1nc(CC(=O)O)c(-c2cccs2)o1 [Preparation Example 433] | C (A≧20>B≧10>C (minute))
40 | Clc1cc(-c2ncc(-c3cccnc3)[nH]2)cs1 [Preparation example 24] | C (A≧20>B≧10>C (minute))
41 | O=C(O)Cc1nc(-c2ccc(C(F)(F)F)cc2)oc1-c1cccs1 [Preparation Example 430] | B (A≧20>B≧10>C (minute))
42 | O=C(O)Cc1nc(-c2ccc(F)cc2)oc1-c1ccccc1 [Preparation Example 153] | B (A≧20>B≧10>C (minute))
43 | CS(=O)(=O)Nc1ccccc1-c1oc(-c2ccc(F)cc2)nc1CC(=O)O [Preparation Example 238] | C (A≧20>B≧10>C (minute))
44 | CN(C)c1ncc(-c2nc(CC(=O)O)c(-c3ccc(Cl)s3)s2)cn1 [Preparation Example 611] | B (A≧20>B≧10>C (minute))
45 | OCc1nc(-c2ccc(Cl)cc2)[nH]c1-c1ccccc1 [Preparation Example 176] | C (A≧20>B≧10>C (minute))
46 | NC(C(=O)O)c1nc(-c2ccc(F)cc2)oc1-c1ccc(Cl)s1 (centres unmarked) [Preparation Example 627] | C (A≧20>B≧10>C (minute))
47 | O=C(O)Cc1nc(-c2ccc(F)cc2)oc1-c1cccs1 [Preparation Example 614] | C (A≧20>B≧10>C (minute))
48 | NC(=O)Cc1nc(-c2ccc(F)cc2)oc1-c1ccsc1 [Preparation Example 615] | B (A≧20>B≧10>C (minute))
49 | O=C(O)Cc1nc(-c2ccc(F)cc2)oc1-c1cc2ccccc2o1 [Preparation Example 254] | C (A≧20>B≧10>C (minute))
50 | CCc1nc(-c2ccc(F)cc2)[nH]c1-c1cccnc1C [Preparation example 48] | C (A≧20>B≧10>C (minute))
